In patent publication US9567339B2, “Primary carboxamides as BTK inhibitors” (AbbVie Inc., priority 2013, dated 2017):
Read-outs that look alike come from different tables or passages of the source.

Molecular target: BTK, recombinant human catalytic domain (aa 393-659) (Homo sapiens (Human), UniProt Q06187)
Experiment: In vitro BTK kinase activity measured by time-resolved fluorescence resonance energy transfer (trFRET)
Format: biochemical
Conditions: read-out: Btk IC50
[1] = trFRET, 0.001 mM ATP, biotin-TYR1 peptide substrate

Sequence of BTK, recombinant human catalytic domain (aa 393-659) (Q06187 393-659): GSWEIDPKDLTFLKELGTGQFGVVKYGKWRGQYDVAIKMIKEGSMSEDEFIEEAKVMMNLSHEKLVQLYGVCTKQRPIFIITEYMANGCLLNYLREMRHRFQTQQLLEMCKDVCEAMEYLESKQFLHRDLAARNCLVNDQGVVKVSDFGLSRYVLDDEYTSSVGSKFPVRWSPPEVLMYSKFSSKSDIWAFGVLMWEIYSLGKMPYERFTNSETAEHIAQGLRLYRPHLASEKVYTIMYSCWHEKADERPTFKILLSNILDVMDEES

Compound	IC50 [1] [nM]	IC50 [nM]
CC(=O)N1CCC(c2cc3c(-c4cccc(NC(=O)c5ccc(C6CC6)cc5)c4C)ccc(C(N)=O)c3[nH]2)CC1 [D.5.1]	100 to 1000	–
Cc1nc(C(=O)NC2CCCN(c3ccc(C(N)=O)c4[nH]c(C5=CCN(S(C)(=O)=O)CC5)cc34)C2)co1 (stereo not drawn) [O.1.5*]	–	< 100
C=CC(=O)N1CC(N(C)c2ccc(C(N)=O)c3[nH]c(-c4cc5n(n4)CCOC5)cc23)C1 [E.9.4]	–	< 100
CC(=O)N1CC=C(c2cc3c(-c4cccc(-n5cnc6ccccc6c5=O)c4C)ccc(C(N)=O)c3[nH]2)CC1 [E.8.2]	–	< 100
Cc1c(NC2COC2)cccc1-c1ccc(C(N)=O)c2[nH]ccc12 [O.1.2]	–	1000 to 10000
CC(=O)N1CC=C(c2cc3c(-c4cccc(-n5cnc6ccc(F)cc6c5=O)c4C)ccc(C(N)=O)c3[nH]2)CC1 [A.3.2]	< 100	–
Cc1c(NC(=O)c2nccs2)cccc1-c1ccc(C(N)=O)c2[nH]c(-c3cccnc3)cc12 [A.7.8]	< 100	–
C=CC(=O)Nc1cccc(-c2ccc(C(N)=O)c3[nH]c(-c4ccc(OC)cc4)cc23)c1C [A.1.23]	< 100	–
C=CC(=O)N1CC([C@H](C)c2ncc(C(N)=O)c3[nH]ccc23)C1 [E.9.29]	–	100 to 1000
Cc1c(NC(=O)/C=C/C2CC2)cccc1-c1ccc(C(N)=O)c2[nH]ccc12 [D.8.6]	100 to 1000	–
C=CC(=O)N1C[C@H](CO)C[C@@H](c2ccc(C(N)=O)c3[nH]ccc23)C1 [E.9.44]	–	100 to 1000
Cc1c(NC(=O)C2CCCC2)cccc1-c1ccc(C(N)=O)c2[nH]c(C3=CCN(S(C)(=O)=O)CC3)cc12 [D.7.31]	–	< 100
C=CC(=O)Nc1cc(-c2ccc(C(N)=O)c3[nH]ccc23)ccc1OC [E.1.8]	–	100 to 1000
Cc1c(NC(=O)/C=C/CN(C)C)cccc1-c1ccc(C(N)=O)c2[nH]ccc12 [J.1, (E)-4-(3-(4-(Dimethylamino)but-2-enamido)-2-methylphenyl)-1H-indole-7-carboxamide]	100 to 1000	–
C=CC(=O)Nc1ccccc1-c1ccc(C(N)=O)c2[nH]ccc12 [E.1.2]	–	1000 to 10000
C=CC(=O)N1CC(C)(N(C)c2ccc(C(N)=O)c3[nH]ccc23)C1 [E.9.35]	–	< 100
Cc1c(NC2COC2)cccc1-c1ccc(C(N)=O)c2[nH]c(C3=CCN(S(C)(=O)=O)CC3)cc12 [A.4.11]	< 100	–
C=CC(=O)N1C[C@@H](CO)C[C@@H](c2ccc(C(N)=O)c3[nH]ccc23)C1 [E.9.45]	–	1000 to 10000
CS(=O)(=O)N1CC=C(c2cc3c(-c4cccc(Nc5ccnc(C#N)n5)c4)ccc(C(N)=O)c3[nH]2)CC1 [A.4.8]	< 100	–
Cc1c(-c2ccc(C(N)=O)c3[nH]c(-c4cnn(CCO)c4)cc23)cccc1-n1cnc2ccccc2c1=O [M.1.2]	–	< 100
NC(=O)c1ccc(N2CCC[C@@H](NC(=O)c3ccc(C(F)(F)F)cc3)C2)c2cc[nH]c12 [O.1.8*]	–	1000 to 10000
Cc1c(NC(=O)c2cc3c(s2)CCCC3)cccc1-c1ccc(C(N)=O)c2[nH]c(-c3cnn(C)c3)cc12 [A.10.5]	< 100	–
Cn1cc(-c2cc3c(-c4cccc(NC(=O)c5nccs5)c4CO)ccc(C(N)=O)c3[nH]2)cn1 [M.1, N-(3-(7-carbamoyl-2-(1-methyl-1H-pyrazol-4-yl)-1H-indol-4-yl)-2-(hydroxymethyl)phenyl)thiazole-2-carboxamide]	< 100	–
CCC(Cl)C(=O)Nc1cccc(-c2ccc(C(N)=O)c3[nH]c(C4=CCN(S(C)(=O)=O)CC4)cc23)c1C (stereo not drawn) [D.7.26]	–	< 100
C=CC(=O)N1CC(N(C)c2ccc(C(N)=O)c3[nH]c(C4CC4)cc23)C1 [E.9.2]	–	< 100
Cc1c(NC(=O)c2cnsc2)cccc1-c1ccc(C(N)=O)c2[nH]c(C3=CCN(S(C)(=O)=O)CC3)cc12 [D.7.38]	–	< 100
CC/C=C(\C)C(=O)Nc1cccc(-c2ccc(C(N)=O)c3[nH]c(C4=CCN(S(C)(=O)=O)CC4)cc23)c1C [D.7.16]	–	< 100
